Tests used:
STZ-DM mice [1] = assay: Weight of the collected thymus (Example 3); assay type: in vivo, C57BL/6 J mice; details: givinostat simultaneously with blood glucose control, both oral and intravenous; non-diabetic 37 mg, diabetic 13 mg
NOD mice = assay: Treatment of diabetes mellitus in NOD mice with HDAC regulator and blood glucose control (Example 4); assay type: in vivo; details: givinostat 2.5 mg/kg orally daily + insulin glargine s.c. daily (tapered from 10 IU), 8-12 weeks
Description: (§1) The treatment was started for NOD mice one week after confirmation of the onset of hyperglycemia. […] 2 hours after administration of insulin glargine, 2.5 mg/kg of givinostat was orally administered daily to a mouse whose blood glucose level was measured and blood glucose lowering was confirmed. When the blood glucose level before administration of insulin glargine was lower than 200 mg/dl at longer than 8 weeks after the start of treatment, the administration of insulin glargine and givinostat on that day was discontinued. When the blood glucose level on the next day was also below 200 mg/dl, insulin glargine and givinostat were stopped, and then, the blood glucose level was measured weekly until week 4 to determine the diabetic state. […] When hypoglycemia appeared, blood glucose levels were measured 1 hour after intraperitoneal (300 µL) administration of 25% glucose solution, and this operation was repeated when hypoglycemia was still persistent. […] When hypoglycemia was confirmed, the subsequent insulin was adjusted to 1/2 of the previous dose as necessary.

STZ-DM mice [2] = assay: Effect of thymectomy on treatment of STZ-DM mice (Example 8); assay type: in vivo, C57BL/6 J mice
Description: Streptozotocin (150 mg/kg) was tail vein-administered to C57BL/6 J mice (wild type, CLEA Japan, Inc., Osaka) to develop diabetes mellitus. After one month of free feeding, an insulin pellet was subcutaneously administered to these STZ-DM mice to normalize their blood glucose levels. The mice were divided into two groups, for one group of mice, the thymus was removed from the suprasternal fossa (thymectomy group), and for the other group of mice, an incision was made in the suprasternal fossa and closed immediately (control group). Givinostat (Cayman chemical, USA) was orally administered at 2.5 mg/kg to both the thymectomy group and the control group. Givinostat was administered once every three days.
Blood glucose levels of mice in both groups were measured weekly (FIG. 24). After the end of 8 weeks of treatment, perfusion fixation was performed on both groups of mice to confirm the presence or absence of thymus (FIG. 25).

STZ-DM mice [3] = assay: TNF-α immunostaining (DAB staining) of bone marrow, thymus and pancreatic islets (Example 3); assay type: in vivo, C57BL/6 J mice
Description: In addition, mice in each experimental group were subjected to perfusion fixation, and then dissected to collect the femur, thymus, and pancreas. In the femur, bone tissue was demineralized using a neutral demineralizing solution (10% EDTA solution) to prepare a paraffin block. A paraffin section having a thickness of 3 µm was prepared from the paraffin block using a microtome, and was stained with DAB. As pretreatment for DAB staining, the paraffin section was deparaffinized with xylene and hydrophilized with ethanol, and the antigen was activated using HistoVT one (Nacalai Tesque). Thereafter, DAB staining was performed using TNF-α (abcam).

STZ-DM mice [4] = assay: Drug treatment of STZ-DM mice (Example 3): weekly blood glucose levels; assay type: in vivo, C57BL/6 J mice
Description: An overview of the procedure is illustrated in FIG. 13. Streptozotocin (150 mg/kg) was tail vein-administered to C57BL/6 J mice (wild type, CLEA Japan, Inc., Osaka) (nonDM) to develop diabetes mellitus. For the STZ-DM mouse, the blood glucose level was normalized by insulin pellet administration, and the blank pellet was administered to a control group. In both the treatment group and the control group, 2.5 mg/kg of givinostat (Cayman chemical, USA) was administered to the tail vein or orally. The insulin pellet or the blank pellet was administered up to 3 days before the start of the givinostat treatment, and the administration of givinostat was started on the day on which it was confirmed that the blood glucose level of the treatment group fell within the normal range on day 0. Note that givinostat was administered once every three days until week 8. In addition, a non-diabetic group (nonDM) in which only a buffer was administered without administering STZ simultaneously with the treatment group, and a non-treated diabetic group (STZ-DM) in which neither blood glucose control nor treatment with givinostat was performed were also observed simultaneously.
(§2) Blood glucose levels were measured weekly for 12 weeks. In addition, an intraperitoneal glucose tolerance test (IPGTT) was performed on some mice 12 weeks after the start of treatment. After 16 hours of fasting, blood glucose level measurement and blood collection were performed at 0 minutes, 100 µl of a 1.5 g/kg glucose solution was intraperitoneally administered, and blood glucose level measurement and blood collection were performed at 30 minutes, 60 minutes, and 120 minutes, respectively. Serum was collected from the collected blood, and the serum insulin concentration was measured using an ultra-sensitive mouse insulin measurement kit (Morinaga Institute of Biological Science, Inc., Japan). FIG. 15 illustrates the transition of blood glucose, and FIG. 16 illustrates the transition of insulin concentration.

db/db mice [5] = assay: Treatment of db/db mice with HDAC regulator and insulin glargine (Example 5); assay type: in vivo; details: givinostat 2.5 mg/kg orally daily + insulin glargine s.c. daily (tapered from 10 IU), 8-12 weeks
Description: as §1, with “Db/db mice were observed from week 6, and the time point at which the blood glucose level exceeded 300 mg/dl” for “The treatment”, “defined as” for “started for NOD mice one week after confirmation of”, “diabetes mellitus.” for “hyperglycemia.”

STZ-DM mice [6] = assay: Insulin and glucagon DAB staining of frozen pancreas sections (Example 3); assay type: in vivo, C57BL/6 J mice; details: givinostat administered simultaneously with blood glucose control (insulin pellet)
Description: 12 weeks after the start of treatment, some mice were subjected to perfusion fixation with a 4% PFA solution in 0.1 M PB and harvested pancreatic tissue was immersed overnight in a 15% sucrose solution in 0.1 M PB, and then, 8 um frozen sections were prepared with a cryostat. The frozen sections were washed 3 times with PBS (-) for 10 minutes, reacted in a 0.3% hydrogen peroxide solution (0.3% H2O2 in PBS (-)) for 30 minutes at room temperature to inactivate endogenous peroxidase in the sections, and then washed 3 times for 5 minutes with PBS (-). Thereafter, in order to prevent non-specific reactions, the sections were reacted with 5% normal goat serum in PBS (-) supplemented with 0.3% Triton X and blocked at room temperature for 1 hour. After blocking, the sections were reacted with a primary antibody (anti-insulin antibody: CST Inc. or anti-glucagon antibody: CST Inc.) at 4°C overnight. Thereafter, the sections was washed 3 times with PBS (-) for 5 minutes, reacted in ImmPRESS reagent (Vector laboratory) at room temperature for 30 minutes, and further washed. […] The prepared sections were observed under a microscope, about 5 to 8 pancreatic islets were randomly selected, and the percentage of insulin or glucagon positive cells relative to the size of the pancreatic islets was calculated using Image J software.

db/db mice [7] = assay: Treatment of db/db mice with HDAC regulator and dapagliflozin (Example 6); assay type: in vivo; details: givinostat 2.5 mg/kg + dapagliflozin 1.0 mg/kg orally daily for 8 weeks, then 4 weeks off treatment
Description: Db/db mice were observed from week 6, and the time point at which the blood glucose level exceeded 300 mg/dl was defined as the onset of diabetes mellitus. In db/db mice with leptin receptor deficiency, 1.0 mg/kg of dapagliflozin, an SGLT inhibitor, and 2.5 mg/kg of givinostat, an HDAC regulator, were orally administered daily for 8 weeks, after which the treatment was discontinued for 4 weeks and terminated.

STZ-DM mice [8] = assay: Intraperitoneal glucose tolerance test (IPGTT) 12 weeks after start of treatment (Example 3); assay type: in vivo, C57BL/6 J mice; details: insulin pellet + givinostat compared with blank pellet + givinostat, 1.5 g/kg glucose i.p.
Description: as §2

[9] = givinostat simultaneously with blood glucose control (insulin pellet)

Q: For `CCN(CC)Cc1ccc2cc(COC(=O)Nc3ccc(C(=O)NO)cc3)ccc2c1` [givinostat], which “thymus weight, relative to normal” value (STZ-DM mice [1]) is on record?
A: about 2/3

Q: And the diabetes mellitus outcome (NOD mice)?
A: cured

Q: And the blood glucose levels (STZ-DM mice [2]; control group without thymectomy, insulin pellet + givinostat 2.5 mg/kg orally once every three days, 8 weeks)?
A: no increase in blood glucose levels was observed

Q: And the “thymus atrophied by diabetes mellitus” value (STZ-DM mice [2]; control group without thymectomy, insulin pellet + givinostat, week 8)?
A: recovered to a normal level

Q: What about the “blood glucose level at the end of treatment” value (STZ-DM mice [2]; thymectomy group, insulin pellet + givinostat 2.5 mg/kg orally once every three days, 8 weeks) of the same molecule?
A: about 400 mg/dL

Q: And the thymus (STZ-DM mice [2]; thymectomy group, insulin pellet + givinostat, week 8)?
A: the thymus did not recover even when the treatment was performed

Q: What about the “TNF-α positive cells in pancreatic islets” value (STZ-DM mice [3]; blank pellet + givinostat treatment (oral) and (intravenous)) of the same molecule?
A: a large amount of TNF-α positive cells migrated to the center of the pancreatic islets

Q: What about the “TNF-α positive cells in bone marrow” value (STZ-DM mice [3]; [9]) of the same molecule?
A: TNF-α positive cells decreased to the same extent as the non-diabetic group

Q: And the “TNF-α positive cells in thymus” value (STZ-DM mice [3]; [9])?
A: TNF-α positive cells decreased to the same extent as the non-diabetic group

Q: And the “TNF-α positive cells in pancreatic islets” value (STZ-DM mice [3]; insulin pellet + givinostat treatment (oral) and (intravenous))?
A: almost no TNF-α positive cells were observed

Q: What about the blood glucose level (STZ-DM mice [4]; givinostat 2.5 mg/kg for 8 weeks without insulin pellet (blank pellet)) of the same molecule?
A: the blood glucose level did not decrease even when givinostat was administered for 8 weeks

Q: And the blood glucose levels (STZ-DM mice [4]; insulin pellet + givinostat 2.5 mg/kg (oral or intravenous, once every three days for 8 weeks), start of treatment)?
A: immediately decreased

Q: What about the blood glucose level (STZ-DM mice [4]; insulin pellet + givinostat (both orally and intravenously), after discontinuing givinostat after week 9, up to week 12) of the same molecule?
A: the reduction in blood glucose level continued even after discontinuing givinostat after week 9

Q: What about the diabetes mellitus outcome (db/db mice [5]) of the same molecule?
A: cured

Q: And the “area of glucagon positive cells, of the entire pancreatic islets” value (STZ-DM mice [6]; nonDM about 10%, STZ-DM 75%)?
A: about 40%

Q: And the “area of insulin positive cells, relative to nonDM” value (STZ-DM mice [6]; pancreatic islets, 12 weeks)?
A: about 1/2

Q: And the diabetes mellitus outcome (db/db mice [7])?
A: cured

Q: And the “blood glucose levels after IPGTT” value (STZ-DM mice [8])?
A: early normalization of blood glucose levels

Q: What about the “insulin in blood after IPGTT” value (STZ-DM mice [8]) of the same molecule?
A: high blood insulin elevation

From patent publication EP4424327A1, “METHOD OR AGENT WITH HDAC REGULATOR, FOR TREATMENT OF DIABETES AND COMPLICATIONS” (Biozipcode, Inc., priority 2021, dated 2023)
